# Measurements as given in ChEMBL document CHEMBL1201861, “Genomics of Drug Sensitity in Cancer screening data, Wellcome Trust Sanger Institute”.
# How the values were obtained:
# Experiment in all cases: cells
# [1] = test system: MDA-MB-157; type: functional, cell-based, Homo sapiens; details: Homo sapiens, MDA-MB-157
# Description: SANGER: Inhibition of human MDA-MB-157 cell growth in a cell viability assay.
# [2] = test system: M14; type: functional, cell-based, Homo sapiens; details: Homo sapiens, M14;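 also: growth inhibition of M14 cells, read out with a cell viability assay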
# Description: SANGER: Inhibition of human M14 cell growth in a cell viability assay.
# [3] = test system: WM-115; type: functional, cell-based, Homo sapiens; details: Homo sapiens, WM-115
# Description: SANGER: Inhibition of human WM-115 cell growth in a cell viability assay.
# [4] = test system: LU-165; type: functional, cell-based, Homo sapiens; details: Homo sapiens, LU-165
# Description: SANGER: Inhibition of human LU-165 cell growth in a cell viability assay.
# [5] = test system: KYSE-520 cell line; type: functional, cell-based, Homo sapiens; details: Homo sapiens, KYSE-520;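 also: growth inhibition of human KYSE-520 cells, read out with a viability assay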
# Description: SANGER: Inhibition of human KYSE-520 cell growth in a cell viability assay.
# [6] = test system: KYSE-410; type: functional, cell-based, Homo sapiens; details: Homo sapiens, KYSE-410;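 also: growth inhibition of KYSE-410 cells, measured through a cell viability readout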
# Description: SANGER: Inhibition of human KYSE-410 cell growth in a cell viability assay.
# [7] = test system: NCI-H1963; type: functional, cell-based, Homo sapiens; details: Homo sapiens, NCI-H1963;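 also: cell growth inhibition of the human line, determined with a cell viability assay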
# Description: SANGER: Inhibition of human NCI-H1963 cell growth in a cell viability assay.
# [8] = test system: NCI-H2030; type: functional, cell-based, Homo sapiens; details: Homo sapiens, NCI-H2030;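 also: growth inhibition of human NCI-H2030 cells, read out by a cell viability assay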
# Description: SANGER: Inhibition of human NCI-H2030 cell growth in a cell viability assay.
# [9] = test system: PA-1; type: functional, cell-based, Homo sapiens; details: Homo sapiens, PA-1;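 also: IC50 for suppression of PA-1 cell proliferation, determined with a cell viability read-out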
# Description: SANGER: Inhibition of human PA-1 cell growth in a cell viability assay.
# [10] = test system: KYSE-510; type: functional, cell-based, Homo sapiens; details: Homo sapiens, KYSE-510;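 also: cell viability readout used to measure how strongly growth of the cell line is suppressed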
# Description: SANGER: Inhibition of human KYSE-510 cell growth in a cell viability assay.
# [11] = test system: IGROV-1; type: functional, cell-based, Homo sapiens; details: Homo sapiens, IGROV-1;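 also: reduction of IGROV-1 cell growth, read out with a viability assay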
# Description: SANGER: Inhibition of human IGROV-1 cell growth in a cell viability assay.
# [12] = test system: HT-1080; type: functional, cell-based, Homo sapiens; details: Homo sapiens, HT-1080
# Description: SANGER: Inhibition of human HT-1080 cell growth in a cell viability assay.
# [13] = test system: AU565; type: functional, cell-based, Homo sapiens; details: Homo sapiens, AU565;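 also: cell viability assay measuring growth inhibition of human AU565 cells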
# Description: SANGER: Inhibition of human AU565 cell growth in a cell viability assay.
# [14] = test system: SAOS-2; type: functional, cell-based, Homo sapiens; details: Homo sapiens, SAOS-2;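 also: growth inhibition of human Saos-2 cells determined by a cell viability assay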
# Description: SANGER: Inhibition of human Saos-2 cell growth in a cell viability assay.
# [15] = test system: IGR-1; type: functional, cell-based, Homo sapiens; details: Homo sapiens, IGR-1;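 also: growth inhibition of human IGR-1 cells, read out with a cell viability assay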
# Description: SANGER: Inhibition of human IGR-1 cell growth in a cell viability assay.
# [16] = test system: COLO-679; type: functional, cell-based, Homo sapiens; details: Homo sapiens, COLO-679
# Description: SANGER: Inhibition of human COLO-679 cell growth in a cell viability assay.
# [17] = test system: SK-N-AS; type: functional, cell-based, Homo sapiens; details: Homo sapiens, SK-N-AS;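 also: growth inhibition of human SK-N-AS cells, measured with a cell viability assay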
# Description: SANGER: Inhibition of human SK-N-AS cell growth in a cell viability assay.
# [18] = test system: NCI-H2141; type: functional, cell-based, Homo sapiens; details: Homo sapiens, NCI-H2141;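 also: growth inhibition of human NCI-H2141 cells, read out with a cell viability assay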
# Description: SANGER: Inhibition of human NCI-H2141 cell growth in a cell viability assay.
# [19] = test system: MKN-28; type: functional, cell-based, Homo sapiens; details: Homo sapiens, MKN-28;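 also: cell viability assay read-out, IC50 reflects suppression of growth of human MKN-28 cells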
# Description: SANGER: Inhibition of human MKN28 cell growth in a cell viability assay.
# [20] = test system: NCI-H748; type: functional, cell-based, Homo sapiens; details: Homo sapiens, NCI-H748;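 also: growth inhibition of NCI-H748 cells, measured by a cell viability assay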
# Description: SANGER: Inhibition of human NCI-H748 cell growth in a cell viability assay.
# [21] = test system: SK-MEL3; type: functional, cell-based, Homo sapiens, SK-MEL-3; details: Homo sapiens, SK-MEL3;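 also: growth inhibition of human SK-MEL-3 cells, read out with a cell viability assay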
# Description: SANGER: Inhibition of human SK-MEL-3 cell growth in a cell viability assay.
# [22] = test system: LU-99A; type: functional, cell-based, Homo sapiens; details: Homo sapiens, LU-99A;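 also: growth inhibition of LU-99A cells, read out with a cell viability assay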
# Description: SANGER: Inhibition of human LU-99A cell growth in a cell viability assay.
# [23] = test system: CAL-54; type: functional, cell-based, Homo sapiens; details: Homo sapiens, CAL-54;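 also: growth inhibition of CAL-54 cells, read out by a viability measurement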
# Description: SANGER: Inhibition of human CAL-54 cell growth in a cell viability assay.
# [24] = test system: LOUCY; type: functional, cell-based, Homo sapiens; details: Homo sapiens, LOUCY;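 also: growth inhibition of human LOUCY cells, read out with a cell viability assay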
# Description: SANGER: Inhibition of human LOUCY cell growth in a cell viability assay.
# [25] = test system: DoTc2-4510; type: functional, cell-based, Homo sapiens; details: Homo sapiens, DoTc2-4510
# [26] = test system: Panc1005; type: functional, cell-based, Homo sapiens; details: Homo sapiens, Panc1005;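 also: growth inhibition of human PANC-10-05 cells, measured by a cell viability assay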
# Description: SANGER: Inhibition of human PANC-10-05 cell growth in a cell viability assay.
# [27] = test system: U-118-MG; type: functional, cell-based, Homo sapiens; details: Homo sapiens, U-118-MG
# Description: SANGER: Inhibition of human U-118-MG cell growth in a cell viability assay.
# [28] = test system: NUGC-3; type: functional, cell-based, Homo sapiens; details: Homo sapiens, NUGC-3;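 also: growth inhibition of human NUGC-3 cells, read out with a cell viability assay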
# Description: SANGER: Inhibition of human NUGC-3 cell growth in a cell viability assay.
# [29] = test system: LoVo; type: functional, cell-based, Homo sapiens; details: Homo sapiens, LoVo;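 also: growth inhibition of human LoVo cells, read out with a cell viability assay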
# Description: SANGER: Inhibition of human LoVo cell growth in a cell viability assay.
# [30] = test system: CAL-148; type: functional, cell-based, Homo sapiens; details: Homo sapiens, CAL-148
# Description: SANGER: Inhibition of human CAL-148 cell growth in a cell viability assay.
# [31] = test system: EB-3; type: functional, cell-based, Homo sapiens; details: Homo sapiens, EB-3;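 also: human EB-3 cells, growth inhibition read out via a cell viability assay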
# Description: SANGER: Inhibition of human EB-3 cell growth in a cell viability assay.
# [32] = test system: SW1417; type: functional, cell-based, Homo sapiens; details: Homo sapiens, SW1417;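 also: growth inhibition of human SW1417 cells, read out with a cell viability assay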
# Description: SANGER: Inhibition of human SW1417 cell growth in a cell viability assay.
# [33] = test system: HCC1569; type: functional, cell-based, Homo sapiens; details: Homo sapiens, HCC1569;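 also: growth inhibition of human HCC1569 cells, read out with a cell viability assay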
# Description: SANGER: Inhibition of human HCC1569 cell growth in a cell viability assay.
# [34] = test system: GDM-1; type: functional, cell-based, Homo sapiens; details: Homo sapiens, GDM-1;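 also: cell viability readout used to measure growth inhibition of human GDM-1 cells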
# Description: SANGER: Inhibition of human GDM-1 cell growth in a cell viability assay.
# [35] = test system: SUP-T1; type: functional, cell-based, Homo sapiens; details: Homo sapiens, SUP-T1;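 also: growth inhibition of human SUP-T1 cells, read out as cell viability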
# Description: SANGER: Inhibition of human SUP-T1 cell growth in a cell viability assay.
# [36] = test system: EGI-1; type: functional, cell-based, Homo sapiens; details: Homo sapiens, EGI-1;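 also: cell viability readout used to gauge growth inhibition of EGI-1 cells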
# Description: SANGER: Inhibition of human EGI-1 cell growth in a cell viability assay.
# [37] = test system: NCI-H596; type: functional, cell-based, Homo sapiens; details: Homo sapiens, NCI-H596;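 also: growth inhibition of NCI-H596 cells, read out with a cell viability assay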
# Description: SANGER: Inhibition of human NCI-H596 cell growth in a cell viability assay.
# [38] = test system: RPMI-7951; type: functional, cell-based, Homo sapiens; details: Homo sapiens, RPMI-7951
# Description: SANGER: Inhibition of human RPMI-7951 cell growth in a cell viability assay.
# [39] = test system: KMS-12-PE; type: functional, cell-based, Homo sapiens; details: Homo sapiens, KMS-12-PE;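 also: growth inhibition of human KMS-12-PE cells, measured with a cell viability assay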
# Description: SANGER: Inhibition of human KMS-12-PE cell growth in a cell viability assay.
# [40] = test system: SCLC-21H; type: functional, cell-based, Homo sapiens; details: Homo sapiens, SCLC-21H;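 also: growth inhibition of cultured human SCLC-21H cells, read out with a cell viability assay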
# Description: SANGER: Inhibition of human SCLC-21H cell growth in a cell viability assay.
# [41] = test system: A2058; type: functional, cell-based, Homo sapiens; details: Homo sapiens, A2058;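 also: reduction of A2058 cell growth, read out with a viability assay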
# Description: SANGER: Inhibition of human A2058 cell growth in a cell viability assay.
# [42] = test system: G-361; type: functional, cell-based, Homo sapiens; details: Homo sapiens, G-361
# [43] = test system: NCI-H2052; type: functional, cell-based, Homo sapiens; details: Homo sapiens, NCI-H2052;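 also: growth inhibition of NCI-H2052 cells, read out with a cell viability assay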
# Description: SANGER: Inhibition of human NCI-H2052 cell growth in a cell viability assay.
# [44] = test system: A-427; type: functional, cell-based, Homo sapiens; details: Homo sapiens, A-427;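 also: growth inhibition of human A-427 cells, read out by a cell viability assay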
# Description: SANGER: Inhibition of human A427 cell growth in a cell viability assay.
# [45] = test system: DBTRG-05MG; type: functional, cell-based, Homo sapiens; details: Homo sapiens, DBTRG-05MG;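 also: cell viability assay measuring growth inhibition of human DBTRG-05MG cells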
# Description: SANGER: Inhibition of human DBTRG-05MG cell growth in a cell viability assay.
# [46] = test system: SNU-423; type: functional, cell-based, Homo sapiens; details: Homo sapiens, SNU-423
# Description: SANGER: Inhibition of human SNU-423 cell growth in a cell viability assay.
# [47] = test system: NCI-H2170; type: functional, cell-based, Homo sapiens; details: Homo sapiens, NCI-H2170;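 also: cell viability assay measuring growth inhibition of human NCI-H2170 cancer cells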
# Description: SANGER: Inhibition of human NCI-H2170 cell growth in a cell viability assay.
smiles,measurement,setting,value
COc1cccc2c1C(=O)c1c(O)c3c(c(O)c1C2=O)C[C@@](O)(C(=O)CO)C[C@@H]3O[C@H]1C[C@H](N)[C@H](O)[C@H](C)O1 [DOXORUBICIN],IC50,[1],499 nM
same,IC50,[2],905 nM
same,IC50,[3],> 1020 nM
same,IC50,[4],639 nM
same,IC50,[5],261 nM
same,IC50,[6],103 nM
same,IC50,[7],430 nM
same,IC50,[8],28.3 nM
same,IC50,[9],44.5 nM
same,IC50,[10],15.5 nM
same,IC50,[11],7.2 nM
same,IC50,[12],14.8 nM
same,IC50,[13],105 nM
same,IC50,[14],330 nM
same,IC50,[15],33.9 nM
same,IC50,[16],16 nM
same,IC50,[17],> 1020 nM
same,IC50,[18],574 nM
same,IC50,[19],31.9 nM
same,IC50,[20],147 nM
same,IC50,[21],148 nM
same,IC50,[22],147 nM
same,IC50,[23],301 nM
same,IC50,[24],21.3 nM
same,IC50,[25],36.2 nM
same,IC50,[26],88.4 nM
same,IC50,[27],856 nM
same,IC50,[28],45.2 nM
same,IC50,[29],81.8 nM
same,IC50,[30],26.9 nM
same,IC50,[31],771 nM
same,IC50,[32],363 nM
same,IC50,[33],109 nM
same,IC50,[34],160 nM
same,IC50,[35],79.7 nM
same,IC50,[36],598 nM
same,IC50,[37],108 nM
same,IC50,[38],130 nM
same,IC50,[39],418 nM
same,IC50,[40],> 1020 nM
same,IC50,[41],17.7 nM
same,IC50,[42],27.9 nM
same,IC50,[43],160 nM
same,IC50,[44],11.8 nM
same,IC50,[45],67.1 nM
same,IC50,[46],155 nM
same,IC50,[47],110 nM
Nc1ccn([C@@H]2O[C@H](CO)[C@@H](O)C2(F)F)c(=O)n1 [GEMCITABINE],IC50,[1],> 1020 nM
same,IC50,[2],515 nM
same,IC50,[3],> 1020 nM
same,IC50,[4],> 1020 nM
same,IC50,[5],92.8 nM
same,IC50,[6],55.9 nM
same,IC50,[7],> 1020 nM
same,IC50,[8],30.4 nM
same,IC50,[9],8.99 nM
same,IC50,[10],< 4 nM
same,IC50,[11],< 4 nM
same,IC50,[12],5.83 nM
same,IC50,[13],21.8 nM
same,IC50,[14],> 1020 nM
same,IC50,[15],14.4 nM
same,IC50,[16],10.1 nM
same,IC50,[17],> 1020 nM
same,IC50,[18],644 nM
same,IC50,[19],> 1020 nM
same,IC50,[20],355 nM
same,IC50,[21],105 nM
same,IC50,[22],> 1020 nM
same,IC50,[23],298 nM
same,IC50,[24],20.7 nM
same,IC50,[25],< 4 nM
same,IC50,[26],15.4 nM
same,IC50,[27],> 1020 nM
same,IC50,[28],18.3 nM
same,IC50,[29],5.71 nM
same,IC50,[30],17.2 nM
same,IC50,[31],> 1020 nM
same,IC50,[32],> 1020 nM
same,IC50,[33],109 nM
same,IC50,[34],62.5 nM
same,IC50,[35],23.5 nM
same,IC50,[36],214 nM
same,IC50,[37],225 nM
same,IC50,[38],< 4 nM
same,IC50,[39],> 1020 nM
same,IC50,[40],> 1020 nM
same,IC50,[41],32.8 nM
same,IC50,[42],21.1 nM
same,IC50,[43],145 nM
same,IC50,[44],324 nM
same,IC50,[45],122 nM
same,IC50,[46],62.5 nM
same,IC50,[47],12 nM
